Test system: MDA-MB-231 cells
Test: Wound healing assay, MDA-MB-231
Type: cell-based
Settings: MDA-MB-231, 20 μM, 24 hours
Protocol: Reversal of EMT mediated by MC-1-F2 was anticipated to lead to the inhibition of metastatic capability of cancer cells. […] A wound healing assay was carried out to examine the migratory capabilities of cells in closing a “wound” or gap over a period of 24 hours. […] Inhibition of migratory capabilities of cells only measures one aspect of EMT progression. EMT is marked also by increased invasiveness of cancer cells. Therefore, the invasive property of MDA-MB-231 cells treated with MC-1-F2 was examined (FIGS. 6B&C).
3×10^5 cells of MDA-MB-231 in 70 μL of DMEM media were seeded on an ibidi μ-dish (Ibidi) and incubated for 24 hours. The insert was removed carefully with tweezers, to create the “wound” and the dish rinsed with DPBS. Followed by the addition of DMEM media with applicable drug. Images were taken at various time points and monitoring of the migration of cells into the “gap” was recorded at several time points.

N=C(N)NCCCCNc1nc(Nc2ccc(Oc3ccccc3)cc2)nc(N2CCN(c3nc(N)nc(Nc4ccc(N5CCOCC5)cc4)n3)CC2)n1 [MC-1-F2]
migratory activity / wound closure: inhibition of the migratory activity

From US10814010B2, “FOXC2 inhibitor and methods of use thereof” (The Board of Regents of The University of Texas System, priority 2018, dated 2020)
